Results on one compound are retold here after publication PMC8536644, “Enigmatic mechanism of the N-vinylpyrrolidone hepatocarcinogenicity in the rat” (Archives of Toxicology, 2021).

Several values for one entry are separate records, joined by “and”; a condition that tells them apart may be missing. Equal entries are not always repeated.

In series [1] the test system is CYP1A. Description: EROD assay, liver microsomes of NVP-treated rats (AhR marker). It counts as in vivo, rat. The conditions noted are these: male rats. On the procedure: The alkoxyresorufin dealkylase (AROD) assays were based on the method by Burke et al. ([1994]).
The frozen livers and lungs of the NVP-treated male Wistar rats were thawed and washed with isotonic (0.9%) NaCl solution. The tissues were ice-cooled homogenized (1 g tissue: 3 mL 0.25 M saccharose in 1 mM disodium EDTA, pH 7.4) and centrifuged (9000 g, 15 min, 4 °C). The supernatant fraction was centrifuged (100 000 g, 60 min, 4 °C). The resulting supernatant fraction was used for the palmitoyl-CoA-oxidase assay described further down. The pellet was taken up in 150 mM aqueous KCl solution, recentrifuged (100 000 g, 60 min, 4 °C) and the pellet taken up in 1 mL/g liver or 0.5 mL/g lung resuspension buffer (1 mM GSH, 1 mM disodium EDTA, 4 mM MgCl2, 0.1 M KH2PO4, pH 7.5 and 4% glycerol). Aliquots were stored at − 80 °C.
(§1) For determination of the enzyme activities in triplicates, 85 µL master mix (100 mM TrisHCl pH 7.5, 2 mM 5’AMP, 5 mM G-6-P, 10 U G-6-P-DH, 10 mM Dicumarol, 10 mM MgCl2, either 2 µM EROD or 10 µM PROD or 5 µM BROD) was added to 10 µL microsomal fraction (1 mg protein/mL). The reaction was started by the addition of 5 µL 2 mM NADPH (dissolved in 100 mM TrisHCl pH 7.5) followed by incubation at 37 °C for 16 min. The activity was determined by measuring the increase of the fluorescence (excitation at 550 nm, emission at 585 nm) due to resorufin formation compared with resorufin standards, which had been prepared by dissolving tenfold concentrated solutions in DMSO, which were then diluted tenfold in 100 mM TrisHCl pH 7.5.

Another series deals with Klebsiella pneumoniae. The conditions noted are these: ref MAK [1994]; cited from earlier work.
Another series relates to rat liver cells. The following applies: rats, ref BASF [2011], cited from earlier work.
A further series relates to rat hepatocytes. Set-up: method as in MAK [1994]. The conditions noted are these: ref MAK [1994]; cited from earlier work.
For the next series, the system named is rat liver. Description: Non-protein-bound sulfhydryl groups (NPSH) in liver homogenate supernatant. It counts as in vivo. The following applies: for NPSH, individual animal / NPSH, group (mean ± SD): rat liver; for NPSH, group (mean ± SD): n = 6. On the procedure:
Determination of NPSH was performed according to the principle described by Ellmann (1958, 1959) in the liver homogenate supernatant fraction of the NVP-exposed male Wistar rats. […] The supernatant fraction was stored in aliqots at − 80 °C. Prior to assay, the samples were diluted fourfold and to 100 µL of the diluted sample 200 µL Tris/EDTA (1 M/5 mM, pH 8.9) buffer was added. Determinations were performed in triplicates. […] Measurements were performed 5 min thereafter at λ = 412 nm.

The test system of series [2] is CYP1A. Description: EROD inhibition control in Aroclor 1254-induced rat liver microsomes. It counts as biochemical. The conditions noted are these: for EROD enzyme activity: 0 µM control 821.5 ± 54.9. As for the experimental part:
as §1
As a method control the described AROD assay was performed with microsomal fractions derived from liver and lung of male Wistar rats which had been treated i.p. for 5 days with aroclor 1254 (500 mg/kg bw). These control assays were performed in presence of 1 μM, 10 μM or 100 μM NVP, respectively, in order to check for potential interactions of NVP with the substrate turnover in the AROD assay.
For orientation: Microsomes from liver hold many membrane-bound enzymes, among them those of drug oxidation.

Take `C=CN1CCCC1=O` [NVP, N-vinylpyrrolidone]: the “Liver microsomal EROD activity” value with CYP1A [1] (5 ppm) was determined as 20.5 ± 3.6 pmol/min/mg protein; with CYP1A [1] (10 ppm), 22.0 ± 5.8 pmol/min/mg protein; in the series on CYP1A [1] (20 ppm), 16.9 ± 6.4 pmol/min/mg protein. The “Klebsiella pneumoniae fluctuation (point mutation) test result” value with Klebsiella pneumoniae is “negative”. Moreover, the “Concentration from which liver cell proliferation is significantly increased” value in the series with rat liver cells (inhalation for 7 days) was ≥ 1 ppm. In addition, the “Concentration giving a significant increase of liver cell proliferation (zones 3 and 2)” value in the series on rat liver cells (inhalation for 28 days) is 0.5 ppm. The “Unscheduled DNA Synthesis (UDS) test result” value in the series with rat hepatocytes is “negative”. Further, in the series with rat liver (NVP-exposed male rats, 5-20 ppm), the “GSH concentration (NPSH assay), range” value is reported as 3.72–5.23 µmol/g liver. The “NPSH, individual animal” value was 5,13 µmol/g liver and 4,59 µmol/g liver and 4,10 µmol/g liver and 4,86 µmol/g liver and 3,99 µmol/g liver in the series on rat liver (5 ppm NVP inhalation, animals 7-12); 4.11 µmol/g liver and 4.72 µmol/g liver and 4.83 µmol/g liver and 4.57 µmol/g liver and 3.76 µmol/g liver with rat liver (10 ppm NVP inhalation, animals 13-18); 4.47 µmol/g liver and 5.23 µmol/g liver and 3.72 µmol/g liver and 3.88 µmol/g liver and 4.67 µmol/g liver and 4.64 µmol/g liver in the series with rat liver (20 ppm NVP inhalation, animals 19-24). Also, the “NPSH, group (mean ± SD)” value was 4.42 ± 0.52 µmol/g liver with rat liver (5 ppm NVP inhalation), 4.23 ± 0.58 µmol/g liver with rat liver (10 ppm NVP inhalation) and 4.44 ± 0.55 µmol/g liver in the series with rat liver (20 ppm NVP inhalation). For the same compound, the EROD enzyme activity in the series on CYP1A [2] (1 µM NVP) came to 859.9 ± 14.1 pmol/min/mg protein; in the series with CYP1A [2] (10 µM NVP), 827.9 ± 13.6 pmol/min/mg protein; in the series with CYP1A [2] (100 µM NVP), 858.9 ± 33.9 pmol/min/mg protein. Moreover, in the series on CYP1A [2] (1, 10 or 100 µM NVP), the “Inhibition of EROD activity” value is recorded as “does not lead to inhibition”.
